Paper PMC7558399, “In Vitro Selective Growth-Inhibitory Activities of Phytochemicals, Synthetic Phytochemical Analogs, and Antibiotics against Diarrheagenic/Probiotic Bacteria and Cancer/Normal Intestinal Cells” (Pharmaceuticals, 2020)
Converted amounts (≈) assume the structure as drawn. Like-named read-outs stand apart in the source and are kept apart here.

Tests used:
Format in all cases: cell-based
[1] = tested on: Listeria monocytogenes (ATCC 7644); assay: Broth microdilution MIC, L. monocytogenes; details: ATCC7644, growth inhibited by ≥80%, read-out: MIC
[2] = tested on: Enterococcus faecalis (ATCC 29212); assay: Broth microdilution MIC, E. faecalis; details: ATCC29212, growth inhibited by ≥80%, read-out: MIC
[3] = tested on: Lactobacillus rhamnosus (CCM 7091); assay: Broth microdilution MIC, L. rhamnosus; details: Lacticaseibacillus rhamnosus, CCM7091; Lactobacillus rhamnosus; growth inhibited by ≥80%; read-out: MIC
[4] = tested on: E. coli 0175:H7 (NCTC 12900); assay: microbe, parasite or virus in culture; details: Escherichia coli, NCTC12900
[5] = tested on: Clostridium perfringens (DSMZ 11778); assay: microbe, parasite or virus in culture; details: DSMZ11778
[6] = tested on: FHs 74 Int (ATCC CCL 241) intestinal normal cells; assay: MTT cytotoxicity assay, FHs 74 Int; details: FHs 74 Int (intestinal normal cells), MTT, 72 h; for IC50 / IC80: FHs74Int; for IC50: read-out: IC50 ± SD; for IC80: read-out: IC80 ± SD (80% inhibitory concentration of proliferation)
[7] = tested on: Bacteroides fragilis (ATCC 25285); assay: Broth microdilution MIC, B. fragilis
[8] = tested on: Clostridium difficile (DSMZ 12056); assay: microbe, parasite or virus in culture; details: Clostridioides difficile, DSMZ12056; Clostridium difficile; […]; read-out: MIC
[9] = tested on: Yersinia enterocolitica (ATCC 9610); assay: Broth microdilution MIC, Y. enterocolitica; details: ATCC9610, growth inhibited by ≥80%, read-out: MIC
[10] = tested on: Shigella flexneri (ATCC 12022); assay: microbe, parasite or virus in culture; details: ATCC12022
[11] = tested on: Bifidobacterium breve (ATCC 15700); assay: Broth microdilution MIC, B. breve; details: ATCC15700, growth inhibited by ≥80%, read-out: MIC
[12] = tested on: Bifidobacterium longum ssp. longum (DSMZ 20219); assay: Broth microdilution MIC, B. longum ssp. longum; details: DSMZ20219; Bifidobacterium longum ssp. longum; growth inhibited by ≥80%; read-out: MIC
[13] = tested on: Lactobacillus reuteri (CCM 3625); assay: Broth microdilution MIC, L. reuteri; details: Limosilactobacillus reuteri, CCM3625; Lactobacillus reuteri; growth inhibited by ≥80%; read-out: MIC
[14] = tested on: Bifidobacterium adolescentis (DSMZ 20087); assay: Broth microdilution MIC, B. adolescentis; details: DSMZ20087, growth inhibited by ≥80%, read-out: MIC
[15] = tested on: probiotic bacteria (9 strains); assay: Broth microdilution MIC, probiotic bacteria as a group (mean or range over strains)
[16] = tested on: Escherichia coli (ATCC 25922); assay: Broth microdilution MIC, E. coli; details: ATCC25922, growth inhibited by ≥80%, read-out: MIC
[17] = tested on: Caco-2 (ATCC HTB 37) intestinal cancer cells; assay: MTT cytotoxicity assay, Caco-2; details: Homo sapiens, Caco-2, MTT, 72 h; for IC50: read-out: IC50 ± SD; for IC80: read-out: IC80 ± SD (80% inhibitory concentration of proliferation)
[18] = tested on: Lactobacillus casei (DSMZ 20011); assay: Broth microdilution MIC, L. casei; details: Lacticaseibacillus casei, DSMZ20011; Lactobacillus casei; growth inhibited by ≥80%; read-out: MIC
[19] = tested on: Salmonella enterica ssp. enterica serovar Enteritidis (ATCC 13076); assay: Broth microdilution MIC, Salmonella Enteritidis; details: Salmonella Enteritidis, growth inhibited by ≥80%, read-out: MIC
[20] = tested on: Bacillus cereus (ATCC 14579); assay: Broth microdilution MIC, B. cereus; details: median/mode, read-out: MIC
[21] = tested on: Vibrio parahaemolyticus (ATCC 17802); assay: Broth microdilution MIC, V. parahaemolyticus; details: ATCC17802, growth inhibited by ≥80%, read-out: MIC
[22] = tested on: S. enterica ssp. enterica serovar Typhimurium (ATCC 14028); assay: Broth microdilution MIC, Salmonella Typhimurium; details: Salmonella Typhimurium, growth inhibited by ≥80%, read-out: MIC
[23] = tested on: HT29 (ATCC HTB 38) intestinal cancer cells; assay: MTT cytotoxicity assay, HT29; details: Homo sapiens, HT-29, HT29, MTT, 72 h; for IC50: read-out: IC50 ± SD; for IC80: read-out: IC80 ± SD (80% inhibitory concentration of proliferation)
[24] = tested on: Bifidobacterium bifidum (ATCC 29521); assay: Broth microdilution MIC, B. bifidum; details: ATCC29521, growth inhibited by ≥80%, read-out: MIC
[25] = tested on: Bifidobacterium animalis spp. lactis (DSMZ 10140); assay: Broth microdilution MIC, B. animalis spp. lactis; details: DSMZ10140; Bifidobacterium animalis spp. lactis; growth inhibited by ≥80%; read-out: MIC
[26] = tested on: diarrheagenic bacteria (12 strains); assay: organism not typed
[27] = tested on: intestinal cancer cells (HT29 and Caco-2); assay: MTT cytotoxicity assay, mean for intestinal cancer cells; details: for IC50: mean of HT29 and Caco-2, >512 replaced with 1024, read-out: x¯ -CC ± SD: mean IC50 for intestinal cancer cells; for IC80: read-out: x¯ -CC ± SD: mean IC80 for intestinal cancer cells
[28] = mean of 9 strains, >512 replaced with 1024, read-out: x¯ -PB ± SD: mean MIC for probiotic bacteria
[29] = mean of 12 strains, >512 replaced with 1024, read-out: x¯ -DB ± SD: mean MIC for diarrheagenic bacteria

Structure (SMILES)	MIC [1] [µg/mL]	MIC [2] [µg/mL]	MIC [3] [µg/mL]	MIC [4] [µg/mL]	MIC [5] [µg/mL]	IC80 ± SD (80% inhibitory concentration of proliferation) [6]	IC50 [6] [µg/mL]	IC80 [6] [µg/mL]	MIC [8] [µg/mL]	MIC [9] [µg/mL]	MIC [10] [µg/mL]	MIC [11] [µg/mL]	MIC [12] [µg/mL]	MIC [13] [µg/mL]	MIC [14] [µg/mL]	MIC [15, 28] [µg/mL]	MIC [16] [µg/mL]	IC50 [17] [µg/mL]	IC80 [17] [µg/mL]	MIC [18] [µg/mL]	further results
O=C(N[C@H](CO)[C@H](O)c1ccc([N+](=O)[O-])cc1)C(Cl)Cl [CA, chloramphenicol]	8 (≈ 24.8 µM)	128 (≈ 396 µM)	8 (≈ 24.8 µM)	8 (≈ 24.8 µM)	4 (≈ 12.4 µM)	- (Not active (MIC/IC50/80 > 512 μg/mL, the value 1024 μg/mL was used for average calculation))	30.7 ± 5.6 (≈ 95 µM)	> 512	4 (≈ 12.4 µM)	16 (≈ 49.5 µM)	4 (≈ 12.4 µM)	4 (≈ 12.4 µM)	4 (≈ 12.4 µM)	8 (≈ 24.8 µM)	4 (≈ 12.4 µM)	6.2 ± 4 (≈ 19.2 µM)	4 (≈ 12.4 µM)	439.3 ± 4 (≈ 1360 µM)	> 512	16 (≈ 49.5 µM)	MIC ([7]; ATCC25285, growth inhibited by ≥80%, read-out: MIC): 4 µg/mL (≈ 12.4 µM); MIC ([15]; bifidobacteria, range over strains, read-out: MICs): 2 to 4 µg/mL (≈ 6.19 to 12.4 µM); MIC [19]: 4 µg/mL (≈ 12.4 µM); MIC ([20]; ATCC14579, growth inhibited by ≥80%): 8 µg/mL (≈ 24.8 µM); MIC [21]: 2 µg/mL (≈ 6.19 µM); MIC [22]: 8 µg/mL (≈ 24.8 µM); IC50 [23]: 271.1 ± 1 µg/mL (≈ 839 µM); IC80 [23]: > 512 µg/mL; MIC [24]: 4 µg/mL (≈ 12.4 µM); MIC [25]: 4 µg/mL (≈ 12.4 µM); MIC ([26]; at least half of the diarrheagenic bacteria, read-out: MICs): 1 to 4 µg/mL (≈ 3.09 to 12.4 µM); MIC [26, 29]: 16.5 ± 34 µg/mL (≈ 51.1 µM); IC50 [27]: 355 ± 84 µg/mL (≈ 1100 µM); IC80 [27]: > 512 µg/mL
CO/N=C(\C(=O)N[C@@H]1C(=O)N2C(C(=O)O)=C(CSc3nc(=O)c(=O)[nH]n3C)CS[C@H]12)c1csc(N)n1 [CF, ceftriaxone sodium]	32	512	32	0.5	4	- (Not active (MIC/IC50/80 > 512 μg/mL, the value 1024 μg/mL was used for average calculation))	> 512	> 512	64	0.25	0.5	32	8	0.5	1	26.6 ± 38	0.062	> 512	> 512	32	IC50 ± SD [6]: - (Not active (MIC/IC50/80 > 512 μg/mL, the value 1024 μg/mL was used for average calculation)); MIC ([7]; ATCC25285): 128 µg/mL; MIC ([15]; Bifidobacterium breve and Bifidobacterium longum ssp. longum, read-out: MICs): 8 to 32 µg/mL; MIC ([15]; lactobacilli, range over strains, read-out: MICs): 0.5 to 32 µg/mL; MIC ([15]; remaining bifidobacteria (other than B. breve and B. longum ssp. longum), read-out: MICs): 1 to 4 µg/mL; MIC [19]: 0.25 µg/mL; MIC ([20]; ATCC14579, […]): 128 µg/mL; MIC [21]: 0.125 µg/mL; MIC [22]: 0.25 µg/mL; IC50 [23]: > 512 µg/mL; IC80 [23]: > 512 µg/mL; MIC [24]: 4 µg/mL; MIC [25]: 2 µg/mL; MIC ([26]; all gram-negative diarrheagenic bacteria, range over strains, read-out: MICs): 0.062 to 0.5 µg/mL; MIC ([26]; gram-positive pathogens, range over strains, read-out: MICs): 4 to 512 µg/mL; MIC [26, 29]: 61.8 ± 141 µg/mL; IC50 [27]: > 512 µg/mL; IC80 [27]: > 512 µg/mL
